Numbering of substitutions follows the chain as printed. “And” between values parts separate entries of the source, which are not always exact repeats. Identical values can stand only once.

Holding throughout (type): cell-based
The target in one experiment is T1, PfCRT^Dd2_H97Y (Plasmodium falciparum, UniProt Q8IBZ9, A220S/H97Y/I356T/K76T/M74I/N326S/N75E/Q271E/R371I).
T1 construct: expressed in transfected cells; host or cells: Xenopus laevis oocytes injected with in vitro transcribed RNA (pSP64T)
T1 sequence (Q8IBZ9 1-424 M74I/N75E/K76T/H97Y/A220S/Q271E/N326S/I356T/R371I): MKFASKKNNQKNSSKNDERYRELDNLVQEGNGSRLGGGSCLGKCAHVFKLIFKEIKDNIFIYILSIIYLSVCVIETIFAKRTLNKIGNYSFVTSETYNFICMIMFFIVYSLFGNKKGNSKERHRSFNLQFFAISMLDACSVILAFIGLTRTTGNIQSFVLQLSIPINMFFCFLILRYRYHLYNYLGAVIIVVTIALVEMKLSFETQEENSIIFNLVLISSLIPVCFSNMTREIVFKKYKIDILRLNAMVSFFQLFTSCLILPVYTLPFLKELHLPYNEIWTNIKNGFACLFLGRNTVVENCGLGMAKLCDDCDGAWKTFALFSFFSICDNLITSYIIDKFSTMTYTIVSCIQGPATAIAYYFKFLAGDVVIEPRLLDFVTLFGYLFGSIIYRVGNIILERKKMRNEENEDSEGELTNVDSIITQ
Put plainly: Verapamil inhibition of PfCRT-mediated CQ and PPQ transport in oocytes, PfCRT^Dd2_H97Y. The conditions noted are these: individual replicates (S3 Fig). Here is the method:
(§1) In all cases, the PfCRT-mediated CQ and PPQ transport was inhibited in the presence of 100 μM verapamil (S3 Fig).
(§2) Drug transport assays were performed as previously described. Briefly, measurements of radiolabeled drug uptake were made over 1 h, unless otherwise specified. […] Where specified, one or more unlabeled drugs were also present at the indicated concentrations. The direction of drug transport in the assays is from the extracellular medium (pH 6) into the oocyte cytosol (pH 7.2), which corresponds to the efflux of CQ or PPQ from the acidic digestive vacuole (pH 5.2) into the parasite cytosol (pH 7.2). The uptake assays were terminated by removing the oocytes from the reaction medium and washing them three times with 2 mL of ice-cold ND96 buffer. Each oocyte was transferred to a separate scintillation vial and lysed by the addition of 200 μL of a 5% SDS solution. The radioactivity in the sample was measured using a liquid scintillation analyser Tri-Carb 4910 TR (PerkinElmer). Water-injected oocytes were analyzed in parallel as a negative control. The buffer from each condition was measured in duplicate in parallel to each experiment to transform counts per minute into pmol of drug. Drug uptake attributable to PfCRT was determined by subtracting the background uptake from water-injected oocytes from that of PfCRT-expressing oocytes. In all cases, at least three independent experiments were performed on oocytes from different frogs, and for each condition in an experiment, measurements were made from 10 oocytes per treatment.
(§3) Supplementary file ppat.1011436.s006.tif: S3 Fig Verapamil inhibits PfCRT-mediated transport of CQ and PPQ. […] Left panels, data is shown as individual biological replicates (coloured symbols) overlaid onto bars representing the Mean ± S.E.M. (error bars). A one-tailed Student’s t-test was performed between untreated (no VP) and treated (+ 100 μM VP) samples, and the obtained p values are shown. Right panels, the uptake in VP-treated samples was divided by the uptake in their corresponding untreated pairs and subtracted from 100% to get the percentage of uptake inhibition mediated by the presence of 100 μM verapamil in the extracellular medium. Error bars are S.E. (TIF) Click here for additional data file.

The target of experiment [1] is T2, PfCRT^Dd2 (Plasmodium falciparum, UniProt Q8IBZ9, A220S/I356T/K76T/M74I/N326S/N75E/Q271E/R371I).
T2 sequence (Q8IBZ9 1-424 M74I/N75E/K76T/A220S/Q271E/N326S/I356T/R371I): T1 sequence (Q8IBZ9 1-424 M74I/N75E/K76T/H97Y/A220S/Q271E/N326S/I356T/R371I) with Y97H
The experiment in a line: Competition plot (Vtotal versus proportion of PPQ in CQ/PPQ mixtures), PfCRT^Dd2. Further details: expressed in transfected cells; host or cells: Xenopus laevis oocytes injected with in vitro transcribed RNA (pSP64T). The conditions noted are these: for competition plot result (binding sites): CQ/PPQ mixtures, curve with a maximum. Here is the method: To test this hypothesis, we performed competition plot experiments, in which the enzyme or carrier is exposed to substrate mixtures that give the same transport rate for different substrates. The experiment is performed with substrate A labeled and then repeated with substrate B labeled.
The competition plot tests whether two substrates bind to the same site or distinct sites on an enzyme or transporter. A competitive reaction would yield data points that lie on a horizontal line, whereas allosteric interactions would reveal a curved relationship. […] Vtotal was subsequently analyzed as a function of the proportion of PPQ in the mixture (P). For more details see Materials and Methods. The mean ± SEM of at least 3 independent biological replicates are shown.
The competition plot was performed as described elsewhere. […] These corresponded to values of P equal to 0, 0.25, 0.5, 0.75, 0.9 and 1. A plot of Vtotal as a function of P yielded the competition plots. If both substrates bind to the same site, then a constant Vtotal is expected across all P values (e.g. data lies on a horizontal line). If the substrates bind to different sites, and they inhibit each other’s transport, it is expected that the curve is concave with either a minimum or a maximum.

Experiment [2] deals with T2, PfCRT^Dd2. Put plainly: Verapamil inhibition of PfCRT-mediated CQ and PPQ transport in oocytes, PfCRT^Dd2. Further details: expressed in transfected cells; host or cells: Xenopus laevis oocytes injected with in vitro transcribed RNA (pSP64T). The following applies: individual replicates (S3 Fig). As for the experimental part:
as §1, §2, §3

Where [3] appears, read: CQ/PPQ mixture, P = 0.25, single replicates.
Setting [4] is: CQ/PPQ mixture, P = 0.5, single replicates.
[5] abbreviates: CQ/PPQ mixture, P = 0.75, single replicates.
Setting [6] is: CQ/PPQ mixture, P = 0.9, single replicates.

Regarding `CCN(CC)CCCC(C)Nc1ccnc2cc(Cl)ccc12` (stereo not shown) [CQ, chloroquine], the “PfCRTDd2_H97Y-mediated CQ transport” value on PfCRT^Dd2_H97Y (50 µM CQ + 100 µM VP) is 2.480 pmol oocyte-1 h-1 and 0.550 pmol oocyte-1 h-1 and 3.310 pmol oocyte-1 h-1 and 4.210 pmol oocyte-1 h-1; on PfCRT^Dd2_H97Y (50 µM CQ), 8.240 pmol oocyte-1 h-1 and 3.560 pmol oocyte-1 h-1 and 5.410 pmol oocyte-1 h-1 and 4.920 pmol oocyte-1 h-1. In addition, the “PfCRTDd2-mediated CQ transport P = 0” value at PfCRT^Dd2 [1] (CQ/PPQ mixture, P = 0, single replicates) was 20.79 pmol oocyte-1 h-1 and 22.58 pmol oocyte-1 h-1 and 19.58 pmol oocyte-1 h-1 and 16.43 pmol oocyte-1 h-1. On PfCRT^Dd2 [1] (setting [3]), the “PfCRTDd2-mediated CQ transport P = 0.25” value was 18.03 pmol oocyte-1 h-1 and 18.73 pmol oocyte-1 h-1 and 18.01 pmol oocyte-1 h-1. Moreover, on PfCRT^Dd2 [1] (setting [4]), the “PfCRTDd2-mediated CQ transport P = 0.5” value is 16.36 pmol oocyte-1 h-1 and 12.29 pmol oocyte-1 h-1. For the same compound, the “PfCRTDd2-mediated CQ transport P = 0.75” value at PfCRT^Dd2 [1] (setting [5]) is 7.91 pmol oocyte-1 h-1 and 7.73 pmol oocyte-1 h-1 and 11.16 pmol oocyte-1 h-1 and 8.67 pmol oocyte-1 h-1. The “PfCRTDd2-mediated CQ transport P = 0.9” value at PfCRT^Dd2 [1] (setting [6]) is 4.33 pmol oocyte-1 h-1 and 3.12 pmol oocyte-1 h-1 and 4.83 pmol oocyte-1 h-1. At PfCRT^Dd2 [1], the “competition plot result (binding sites)” value is “bind at different sites”. The “PfCRTDd2-mediated CQ transport” value on PfCRT^Dd2 [2] (50 µM CQ + 100 µM VP) is 1.980 pmol oocyte-1 h-1 and 2.230 pmol oocyte-1 h-1 and 2.450 pmol oocyte-1 h-1 and 1.670 pmol oocyte-1 h-1 and 3.620 pmol oocyte-1 h-1; on PfCRT^Dd2 [2] (50 µM CQ), 3.900 pmol oocyte-1 h-1 and 4.910 pmol oocyte-1 h-1 and 4.760 pmol oocyte-1 h-1 and 7.490 pmol oocyte-1 h-1 and 5.040 pmol oocyte-1 h-1 and 3.980 pmol oocyte-1 h-1 and 10.460 pmol oocyte-1 h-1.
As to `Clc1ccc2c(N3CCN(CCCN4CCN(c5ccnc6cc(Cl)ccc56)CC4)CC3)ccnc2c1` [PPQ, piperaquine], the “PfCRTDd2_H97Y-mediated PPQ transport” value on PfCRT^Dd2_H97Y (50 µM PPQ + 100 µM VP) is 18.33 pmol oocyte-1 h-1 and 31.33 pmol oocyte-1 h-1 and 27.94 pmol oocyte-1 h-1 and 23.86 pmol oocyte-1 h-1. For the same compound, at PfCRT^Dd2 [1] (setting [3]), the “PfCRTDd2-mediated PPQ transport P = 0.25” value was 3.23 pmol oocyte-1 h-1 and 2.01 pmol oocyte-1 h-1 and 4.17 pmol oocyte-1 h-1. For the same compound, on PfCRT^Dd2 [1] (setting [4]), the “PfCRTDd2-mediated PPQ transport P = 0.5” value was 8.67 pmol oocyte-1 h-1 and 8.62 pmol oocyte-1 h-1 and 9.88 pmol oocyte-1 h-1. The “PfCRTDd2-mediated PPQ transport P = 0.75” value on PfCRT^Dd2 [1] (setting [5]) was 14.14 pmol oocyte-1 h-1 and 12.26 pmol oocyte-1 h-1 and 14.54 pmol oocyte-1 h-1. In addition, the “PfCRTDd2-mediated PPQ transport P = 0.9” value on PfCRT^Dd2 [1] (setting [6]) was 15.27 pmol oocyte-1 h-1 and 15.64 pmol oocyte-1 h-1 and 17.36 pmol oocyte-1 h-1 and 20.19 pmol oocyte-1 h-1. Besides, the “PfCRTDd2-mediated PPQ transport P = 1” value at PfCRT^Dd2 [1] (CQ/PPQ mixture, P = 1, single replicates) was 17.53 pmol oocyte-1 h-1 and 18.98 pmol oocyte-1 h-1 and 22.10 pmol oocyte-1 h-1. In addition, the “competition plot result (binding sites)” value on PfCRT^Dd2 [1] was “bind at different sites”. The “PfCRTDd2-mediated PPQ transport” value on PfCRT^Dd2 [2] (50 µM PPQ + 100 µM VP) was 5.44 pmol oocyte-1 h-1 and 8.16 pmol oocyte-1 h-1 and 20.06 pmol oocyte-1 h-1 and 36.26 pmol oocyte-1 h-1 and 13.97 pmol oocyte-1 h-1; at PfCRT^Dd2 [2] (50 µM PPQ), 28.14 pmol oocyte-1 h-1 and 21.87 pmol oocyte-1 h-1 and 89.78 pmol oocyte-1 h-1 and 46.28 pmol oocyte-1 h-1 and 30.01 pmol oocyte-1 h-1 and 33.33 pmol oocyte-1 h-1.

The values are drawn from paper PMC10281575, “PfCRT mutations conferring piperaquine resistance in falciparum malaria shape the kinetics of quinoline drug binding and transport” (PLOS Pathogens, 2023).
